Measured values published in patent US20250195521A1 (Revolution Medicines, Inc., priority 2020, published 2025).
Where two headings read alike, the source gives them in different places.

Key:
[1] = 18-membered ring
[2] = biological target: KRAS G12S binding to BRAF RBD (Homo sapiens (Human), UniProt P01116+P62937, G12S); experiment: Ras-Raf disruption/FRET/MOA assay, KRAS G12S; type: biochemical
Source text: (§1) Note—The following protocol describes a procedure for monitoring disruption of K-Ras G12C(GMP-PNP) binding to BRAF^RBD by a compound of the invention. This protocol may also be executed substituting other Ras proteins or nucleotides.
(§2) The purpose of this biochemical assay was to measure the ability of test compounds to facilitate ternary complex formation between a nucleotide-loaded K-Ras isoform and Cyclophilin A; the resulting ternary complex disrupts binding to a BRAF^RBD construct, inhibiting K-Ras signaling through a RAF effector. Data is reported as IC50 values.
(§3) Compound was present in plate wells as a 10-point 3-fold dilution series starting at a final concentration of 30 μM. After incubation at 25° C. for 3 hours, a mixture of Anti-His Eu—W1024 and anti-GST allophycocyanin was then added to assay sample wells at final concentrations of 10 nM and 50 nM, respectively, and the reaction incubated for an additional 1.5 hours. […] Compounds that facilitate disruption of a K-Ras: RAF complex were identified as those eliciting a decrease in the TR-FRET ratio relative to DMSO control wells.

[3] = test system: NCI-H358 (K-Ras G12C); experiment: CellTiter-Glo cell viability assay, NCI-H358; type: cell-based, human; conditions: Homo sapiens, NCI-H358, 120 h, 5-day treatment; read-out: H358 Cell Viability assay data (K-Ras G12C, IC50)
Procedure, shortened: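 Viability is measured as ATP-dependent luminescence (CellTiter-Glo) five days into compound treatment. Responses are normalized to vehicle (DMSO) wells and fitted by four-parameter logistic regression.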

[4] = biological target: KRAS WT binding to BRAF RBD (Homo sapiens (Human), UniProt P01116+P62937); experiment: Ras-Raf disruption/FRET/MOA assay, KRAS WT; type: biochemical
Chain of KRAS WT binding to BRAF RBD (P01116 other isoform, or with tags, fused parts or gaps): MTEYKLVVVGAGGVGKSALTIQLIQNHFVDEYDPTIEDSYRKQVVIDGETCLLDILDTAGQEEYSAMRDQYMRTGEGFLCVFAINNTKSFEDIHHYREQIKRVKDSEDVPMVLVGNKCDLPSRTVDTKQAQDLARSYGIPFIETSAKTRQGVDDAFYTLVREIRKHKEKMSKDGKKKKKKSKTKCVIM
Chain of KRAS WT binding to BRAF RBD (P62937 whole entry, the tested form may be a part): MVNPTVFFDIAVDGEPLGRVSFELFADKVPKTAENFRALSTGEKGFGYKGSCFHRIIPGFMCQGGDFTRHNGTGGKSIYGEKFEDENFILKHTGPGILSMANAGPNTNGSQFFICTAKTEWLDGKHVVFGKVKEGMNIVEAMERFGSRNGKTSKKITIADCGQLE
Source text: Disruption of B-Raf Ras-binding Domain (BRAF^RBD) Interaction with K-Ras by Compounds of the Invention (also called a FRET assay or an MOA assay)
as §1, §2
as §3, with “In assay buffer containing 25 mM HEPES pH 7.3, 0.002% Tween20, 0.1% BSA, 100 mM NaCl and 5 mM MgCl2, tagless Cyclophilin A, His6-K-Ras-GMPPNP, and GST-BRAF^RBD were combined in a 384-well assay plate at final concentrations of 25 μM, 12.5 nM and 50 nM, respectively. Compound was” for “Compound was”

[5] = biological target: K-Ras G12C(GMP-PNP) binding to BRAF RBD (Homo sapiens (Human), UniProt P01116+P62937, G12C); experiment: Disruption of BRAF RBD interaction with K-Ras (FRET / MOA assay), K-Ras G12C; type: biochemical; conditions: read-out: KRAS G12C FRET IC50
Chain of K-Ras G12C(GMP-PNP) binding to BRAF RBD (P01116 other isoform, or with tags, fused parts or gaps G12C): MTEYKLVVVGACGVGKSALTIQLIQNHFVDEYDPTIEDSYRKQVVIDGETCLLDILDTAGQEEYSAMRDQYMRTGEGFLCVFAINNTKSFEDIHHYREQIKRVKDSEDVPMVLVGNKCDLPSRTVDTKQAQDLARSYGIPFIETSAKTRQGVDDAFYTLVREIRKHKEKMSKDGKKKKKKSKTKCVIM
Chain of K-Ras G12C(GMP-PNP) binding to BRAF RBD (P62937 whole entry): as the sequence (P62937 whole entry, the tested form may be a part) above
Procedure, shortened: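 Cpd 10-pt 3-fold dilution, top 30 μM final; Ras/CypA/BRAF RBD mix 3 h, 25° C. Add anti-His Eu-W1024 10 nM + anti-GST APC 50 nM final, 1.5 h. Readout TR-FRET ratio decrease vs DMSO → IC50.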

[6] = test system: Capan-1 cells (K-Ras G12V); experiment: CellTiter-Glo cell viability, Capan-1; type: cell-based, human; conditions: Homo sapiens, CAPAN-1, 120 h, K-Ras G12V, 5-day treatment; read-out: Capan-1 Cell Viability IC50
Procedure, shortened: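 Viability is read as luminescence after five days of compound exposure, with plates first equilibrated to room temperature for roughly 30 minutes. Each signal is expressed as a percentage of the mean DMSO control, and curves are fitted by four-parameter logistic regression.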

Chain of KRAS G12S binding to BRAF RBD (P01116 other isoform, or with tags, fused parts or gaps G12S): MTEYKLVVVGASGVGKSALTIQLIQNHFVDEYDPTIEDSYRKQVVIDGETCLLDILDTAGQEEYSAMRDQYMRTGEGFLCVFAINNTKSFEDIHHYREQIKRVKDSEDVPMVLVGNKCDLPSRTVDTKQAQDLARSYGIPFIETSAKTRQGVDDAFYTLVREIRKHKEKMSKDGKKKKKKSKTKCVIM
Chain of KRAS G12S binding to BRAF RBD (P62937 whole entry): as the sequence (P62937 whole entry, the tested form may be a part) above

`CCn1c(-c2cccnc2[C@H](C)OC)c2c3cc(ccc31)-c1csc(n1)C[C@H](NC(=O)OC(C)(C)C)C(=O)N1CCC[C@H](N1)C(=O)OCC(C)(C)C2` gave a ring closure, isolated yield ([1]; from CCn1c(-c2cccnc2[C@H](C)OC)c(CC(C)(C)CO)c2cc(-c3csc(C[C@H](NC(=O)OC(C)(C)C)C(=O)N4CCC[C@@H](C(=O)O)N4)n3)ccc21, ester bond, EDCI/HOBt/DIEA, DCM, 12.65 mM, 16.0 h) of 81.1%.

In the case of `CCn1c(-c2cccnc2[C@H](C)OC)c2c3cc(ccc31)-c1csc(n1)C[C@H](NC(=O)OC(C)(C)C)C(=O)N1CC[C@H](C)[C@H](N1)C(=O)OCC(C)(C)C2`, the ring closure, isolated yield ([1]; from CCn1c(-c2cccnc2[C@H](C)OC)c(CC(C)(C)COC(=O)[C@H]2NN(C(=O)[C@H](Cc3nc(Br)cs3)NC(=O)OC(C)(C)C)CC[C@@H]2C)c2cc(B3OC(C)(C)C(C)(C)O3)ccc21, cc_pd bond, Pd(DtBPF)Cl2/K3PO4, dioxane/H2O 5:1, 17.5 mM, 60.0 °C, 1.0 h) is reported as 44.7%.

`CCn1c(-c2cccnc2[C@H](C)OC)c2c3cc(ccc31)N1CCC[C@@H](C[C@H](NC(=O)OCc3ccccc3)C(=O)N3CCC[C@H](N3)C(=O)OCC(C)(C)C2)C1` showed a ring closure, isolated yield ([1]; from CCn1c(-c2cccnc2[C@H](C)OC)c(CC(C)(C)CO)c2cc(N3CCC[C@@H](C[C@H](NC(=O)OCc4ccccc4)C(=O)N4CCC[C@@H](C(=O)O)N4)C3)ccc21, ester bond, EDCI/HOBt/DIEA, DCM, 36.7 mM, 25.0 °C, 6.0 h) of 36%.

Compound `CCn1c(-c2cnccc2COC)c2c3cc(ccc31)-c1cc(O)cc(c1)C[C@H](NC(=O)[C@H](C(C)C)N(C)C(=O)O[C@H]1CCOC1)C(=O)N1CCC[C@H](N1)C(=O)OCC(C)(C)C2` [Compound A260] has an IC50 [2] of 10 to 100 nM, an IC50 [3] of under 10 nM and an IC50 [4] of 10 to 100 nM. For the same compound, the IC50 [5] was 10 to 100 nM and the IC50 [6] was 1000 to 10000 nM.

In the case of “(2S,6S)—N-((6^3S,3S,4S,Z)-3-(2-(dimethylamino) ethoxy)-1^1-ethyl-1^2-(2-((S)-1-methoxyethyl) pyridin-3-yl)-10, 10-dimethyl-5,7-dioxo-6^1,6^2,6^3,6^4,6^5,6^6-hexahydro-1^1H-8-oxa-2 (4,2)-thiazola-1 (5,3)-indola-6 (1,3)-pyridazinacycloundecaphane-4-yl)-2,4,6-trimethylpiperazine-1-carboxamide”, the ring closure, isolated yield ([1]; cc_pd bond, Pd(dtbpf)Cl2/K3PO4, toluene/1,4-dioxane/H2O 3:1:1, 57.0 mM, 60.0 °C) is reported as 50%.

In the case of “(6^3S,3S,4S,Z)-4-(dibenzylamino)-1^1-ethyl-3-methoxy-1^2-(2-((S)-1-methoxyethyl) pyridin-3-yl)-10, 10-dimethyl-6^1,6^2,6^3,6^4,6^5,6^6-hexahydro-1^1H-8-oxa-2 (4,2)-thiazola-1 (5,3)-indola-6 (1,3)-pyridazinacycloundecaphane-5,7-dione”, the ring closure, isolated yield ([1]; cc_pd bond, Pd(DtBPF)Cl2/K3PO4, dioxane/H2O 5:1, 40.0 mM, 80.0 °C) is reported as 44.4%.

For “(9H-fluoren-9-yl) methyl (1R,5S,7r)-7-(5-((6^3S,3S,4S,Z)-4-((tert-butoxycarbonyl) amino)-3-ethoxy-1^1-ethyl-10, 10-dimethyl-5,7-dioxo-6^1,6^2,6^3,6^4,6^5,6^6-hexahydro-1^1H-8-oxa-2 (4,2)-thiazola-1 (5,3)-indola-6 (1,3)-pyridazinacycloundecaphane-12-yl)-6-((S)-1-methoxyethyl) pyridin-3-yl)-3-oxa-9-azabicyclo[3.3.1]nonane-9-carboxylate”, the ring closure, isolated yield ([1]; cc_pd bond, Pd(DtBPF)Cl2/K3PO4, toluene/1,4-dioxane/H2O (3:1:1), […], 80.0 °C) was 65%.

“(9H-fluoren-9-yl) methyl ((6^3S,4S,Z)-3-(dimethylamino)-1^1-ethyl-1^2-(2-((S)-1-methoxyethyl) pyridin-3-yl)-10, 10-dimethyl-5,7-dioxo-6^1,6^2,6^3,6^4,6^5,6^6-hexahydro-1^1H-8-oxa-2 (4,2)-thiazola-1 (5,3)-indola-6 (1,3)-pyridazinacycloundecaphane-4-yl) carbamate” gave a ring closure, isolated yield ([1]; cc_pd bond, Pd(dtbpf)Cl2/K3PO4, toluene/1,4-dioxane/H2O 3:1:1, 27.3 mM, 60.0 °C) of 19%.

In the case of “(9H-fluoren-9-yl)methyl-7-(5-((6^3S,3S,4S,Z)-4-((tert-butoxycarbonyl) amino)-3-ethoxy-1^1-ethyl-10,10-dimethyl-5,7-dioxo-6^1,6^2,6^3,6^4,6^5,6^6-hexahydro-1^1H-8-oxa-2 (4,2)-thiazola-1 (5,3)-indola-6 (1,3)-pyridazinacycloundecaphane- 12-yl)-6-((S)-1-methoxyethyl) pyridin-3-yl)-3-oxa-9-azabicyclo[3.3.1] non-6-ene-9-carboxylate”, the ring closure, isolated yield ([1]; cc_pd bond, Pd(dppf)Cl2.DCM/K3PO4, toluene/dioxane/H2O 3:1:1, 205.0 mM, 80.0 °C) is reported as 49%.

With “benzyl 4-(5-((3′S,3′S,4′S,Z)-4′-((tert-butoxycarbonyl) amino)-3′-ethoxy-1′-(2-isopropoxyethyl)-5′, 7′-dioxospiro[cyclopropane-1,10′-8-oxa-2 (4,2)-thiazola-1 (5,3)-indola-6 (1,3)-pyridazinacycloundecaphan]-2′-yl)-6-((S)-1-methoxyethyl) pyridin-3-yl) piperazine-1-carboxylate” the ring closure, isolated yield ([1]; cc_pd bond, XPhos-Pd-G3/XPhos/K3PO4, toluene/1,4-dioxane/H2O 3:1:1, 28.0 mM, 65.0 °C) was 27%.

Work on “benzyl 4-(5-((6^3S,3S,4S,Z)-4-((tert-butoxycarbonyl) amino)-3-ethoxy-1^1-(2-isopropoxyethyl)-10,10-dimethyl-5,7-dioxo-6^1,6^2,6^3,6^4,6^5,6^6-hexahydro-1^1H-8-oxa-2 (4,2)-thiazola-1 (5,3)-indola-6 (1,3)- pyridazinacycloundecaphane-12-yl)-6-((S)-1-methoxyethyl) pyridin-3-yl) piperazine-1-carboxylate” yielded a ring closure, isolated yield ([1]; cc_pd bond, Pd(dtbpf)Cl2/K3PO4, toluene/1,4-dioxane/H2O 3:1:1, 16.0 mM, 65.0 °C) of 44%.

In the case of “benzyl 4-((((6^3S,3S,4S,Z)-4-((tert-butoxycarbonyl) amino)-1^1-ethyl-1^2-(2-((S)-1-methoxyethyl) pyridin-3-yl)-10,10-dimethyl-5,7-dioxo-6^1,6^2,6^3,6^4,6^5,6^6-hexahydro-1^1H-8-oxa-2 (4,2)-thiazola-1 (5,3)-indola-6 (1,3)-pyridazinacycloundecaphane-3-yl)oxy) methyl)-3,6-dihydropyridine-1 (2H)-carboxylate”, the ring closure, isolated yield ([1]; cc_pd bond, Pd(dtbpf)Cl2/K3PO4, toluene/dioxane/H2O, 60.0 °C) is reported as 32%.

“benzyl 5-((6^3S,3S,4S,Z)-4-((tert-butoxycarbonyl) amino)-3-ethoxy-1^1-ethyl-10, 10-dimethyl-5,7-dioxo-6^1,6^2,6^3,6^4,6^5,6^6-hexahydro-1^1H-8-oxa-2 (4,2)-thiazola-1 (5,3)-indola-6 (1,3)-pyridazinacycloundecaphane-12-yl)-6-((S)-1-methoxyethyl)-3′, 6′-dihydro-[3,4′-bipyridine]-1′ (2′H)-carboxylate” gave a ring closure, isolated yield ([1]; cc_pd bond, Pd(dtbpf)Cl2/K3PO4, toluene/1,4-dioxane/H2O 3:1:1, 40.7 mM, 70.0 °C) of 39%.

“tert-butyl ((2^2R,6^3S,4S)-1^1-ethyl-1^2-(2-((S)-1-methoxyethyl) pyridin-3-yl)-22-(methoxymethyl)-10,10-dimethyl-5,7-dioxo-2^1,2^2,2^3,2^6,6^1,6^2,6^3,6^4,6^5,6^6-decahydro-1^1H-8-oxa-1 (5,3)-indola-6 (1,3)-pyridazina-2 (5,1)-pyridinacycloundecaphane-4-yl) carbamate” showed a ring closure, isolated yield ([1]; cc_pd bond, Pd(dppf)Cl2/K3PO4, toluene/dioxane/H2O, […], 70.0 °C) of 30%.
